The values that follow are results of earlier work, collected in patent EP4729055A1, “TREATMENT OF DISORDERS USING SPHINGOSINE-1-PHOSPHATE RECEPTOR MODULATORS” (The Provost, Fellows, Foundation Scholars, & the other …, priority 2024, dated 2026).

`CCCCCCCCc1ccc(CCC(N)(CO)CO)cc1` [fingolimod, 2-Amino-2-[2-(4-octylphenyl)ethyl]propane-1,3-diol]: the “log P” value is 5.5.

One may read the log P as the decadic logarithm of the partition coefficient of the neutral form, usually between octanol and water.
